The subject of this assay is HUVECs. The assay is described as follows: Vascular barrier destruction in HUVECs under LPS stimulation (FIG. 4G). It counts as cell-based.

Regarding `CCN(CC)Cc1ccc(C(=O)N(CCc2ccccc2OC)[C@@H]2CCNC2)cc1` [PF-429242], the vascular barrier destruction entry is “inhibited vascular bather destruction”.

The values are drawn from patent US20230333109A1, “COMPOSITION FOR DIAGNOSING INFECTIOUS DISEASES COMPRISING AGENT FOR MEASURING EXPRESSION LEVEL OF SREBP2” (KOREA RESEARCH INSTITUTE OF BIOSCIENCE AND BIOTECHNOLOGY, priority 2020, published 2023).
